For series [1], the system named is neurons expressing GFP-tagged P301L-tau. The experiment in a line: Missorting of tau to dendritic spines in neurons expressing P301L mutant tau, peptide treatment. The format is cell-based, rat. Conditions: for proportion of dendritic spines that contain tau (tau mis-sorting caused by P301L mutation): 21 DIV neurons, GFP-tagged P301L-tau, peptide 1 μM for 3 days. Here is the method: FIG. 10A-FIG. 10B show missorting of tau to dendritic spines caused by P301L mutation is blocked by Peptide 1 and Peptide 2 but not Peptide 3. FIG. 10A 21 days in vitro (DIV) neurons expressing DsRed (left panels) and GFP-tagged P301L-tau (middle panels) were treated with AP peptide (Peptide 2; 1 μM) for 3 days (top panels: untreated; bottom panels: treated).
Transfected cells were continually bathed in neurobasal media and were passively perfused with medical-grade 95% O2-5% CO2. Micrographs were taken on a Nikon epifluorescent inverted microscope with 60× oil lens with a computerized focus motor at DIV 21-23. All digital images were processed using METAMORPH Imaging System (Universal Imaging Corporation, Molecular Devices, San Jose, Calif.). Images were taken as 15 plane stacks at 0.5 micron increments, processed by deconvolution to the nearest planes, and averaged against other stacked images. A dendritic spine was defined as having an expanded head diameter, greater than 50% larger in diameter than the neck. The number of spines per neuron were counted and normalized to a […] length of dendritic shaft. […]

Series [2] relates to rat hippocampal neurons expressing GFP-tagged wild-type human tau. Kind of series: Mislocalization of tau to dendritic spines caused by Aβ oligomers. The series is classed as cell-based. The settings on record: Aβ oligomers 0.1 μM with AP peptide 1 μM, 3 days. Here is the method: FIG. 11A Cultured 21 days in vitro (DIV) rat hippocampal neurons expressing DsRed (left panels) and GFP-tagged wild-type human tau (middle panels) were untreated (top panels), treated with Aβ oligomers alone (0.1 μM) (middle panels), or treated with Aβ oligomers (0.1 μM) with AP peptide (1 μM) (bottom panels) for 3 days.

Series [3] deals with rat hippocampal neurons expressing GFP-WT-tau. The experiment in a line: Tau missorting to dendritic spines in mechanically injured (stretched) neurons, TBI model. The format is cell-based. Conditions: 10 stretches, 2% strain; AP peptide 1 μM. Here is the method: FIG. 12A. Representative live images of cultured rat hippocampal neurons that had been co-transfected with plasmids of DsRed (left lane; a red fluorescence protein to label dendritic spines) and green fluorescence protein (GFP)-tagged wild-type tau (GFP-WT-tau; middle lane) with overlay images on the right lane 2 days after the delivery of a mechanical protocol. The neurons were cultured on a plastic membrane and were stretched by a computer-controlled mechanical device, as described in Example 2 (10 stretches; 2% mechanical strain; 1 second interval between stretches) in 21 days in vitro (DIV). Arrows denote dendritic spines that contain tau and triangles denote dendritic spines devoid of tau. FIG. 12B. […] FIG. 12C. […] ANOVA was used in FIG. 12B and FIG. 12C; *** indicates p<0.001.
In a tauopathy model for traumatic brain injuries (TBI) based on the model of Hemphill et al. 2011 PLoS One. 6(7):e2289), mechanical injuries to neurons induce tau missorting to dendritic spines (FIG. 12). The methods of Hemphill et al. were modified such that plasmids encoding GFP-tagged tau were introduced into neurons, allowing detection of tau abnormalities as well as tau-mediated synaptic deficits. Briefly, neurons were plated onto medical grade silicone elastomer membranes (0.010 inch NRV, Specialty Manufacturing, Inc., Saginaw, Mich.) and glued inside a reducing well. […]

Series [4] relates to rat hippocampal neurons expressing P301L mutant eGFP-tau. Kind of series: P301L mutant tau mislocalization to dendritic spines, kinase inhibitor treatment. The series is classed as cell-based. An excerpt:
FIG. 5A. […] FIG. 5B. […] FIG. 5C. […] FIG. 5D. […] FIG. 5E.

The test system of series [5] is primary cultured rat hippocampal neurons. Kind of series: Cell death of cultured neurons under kinase inhibitor treatment. The settings on record: Sprague-Dawley, 24 h. The series is classed as cell-based. Here is the method: Roscovitine and CHIR99021 were purchased from Sigma-Aldrich (St. Louis, Mo.) and were diluted in DMSO to four 1000× concentration aliquots for ultimate concentrations in neurobasal medium of […]. Primary cultured rat hippocampal neurons transfected with dsRed and eGFP-P301L-tau were treated with one of four 1000× aliquots or DMSO vehicle on DIV 20-22. Treated cells were incubated for 24 hours prior to imaging on DIV 21-23. Cell death was visually assessed under differential interference contrast (DIC) for decreased cell density, lost soma adhesion, gross qualitative neurite retraction. If evidence of cell death was observed under DIC, cells were fixed in 4% sucrose and 4% paraformaldehyde in PBS and stained with 300 nM DAPI in PBS. DAPI stained cells were analyzed under fluorescent microscopy for nuclear pyknosis and karyorrhexis; dsRed expressing cells were analyzed for spine loss. If no cell death was evident under DIC, live fluorescent images were acquired and analyzed as above.

For series [6], the system named is cultured G2-3 (A53T αS) mouse hippocampal neurons expressing eGFP-WT tau. Kind of series: A53T αS-dependent mislocalization of tau to dendritic spines, GSK3β inhibition. The series is classed as cell-based. Conditions: 3 μM, applied at 16 DIV, imaged at 21 DIV.
Series [7] concerns cultured rat hippocampal neurons expressing A53T αS. The experiment in a line: AMPA receptor mEPSCs in neurons transfected with A53T αS. The format is cell-based. The settings on record: GSK3β inhibition with CHIR.
For series [8], the system named is low density hippocampal neurons from G2-3 mice. Kind of series: GluA1 surface expression in dendritic spines of G2-3 neurons. The format is cell-based, mouse. The source says: FIG. 21A. Photomicrographs of neurons from G2-3 mice and their TgNg littermates without (top two panels) and with treatment of CHIR-99021 (bottom two panels). As previously described (Liao et al. 1999 Nature Neuroscience 2(1): 37-43), live neurons were stained for N-GluA1 antibodies (green), fixed, permeablized, and stained for PSD-95 (red). Arrows indicate tightly clustered surface N-GluA1 colocalized with PSD-95, whereas weak, non-specific N-GluR1 immunoreactivity appeared along the dendritic shafts as diffuse staining rather than distinct clusters in G2-3 neurons (arrow heads). The diffuse staining is likely due to the presence of extrasynaptic AMPA receptors (Newpher and Ehlers 2008 Neuron 58: 472-97). […] Scale bar: […]. FIG. 21B. GluA1 surface fluorescence in PSD-95 immunoreactive spines was normalized to dendritic fluorescence. […] For all n=8; data are expressed as mean±s.e.m. […]
Cultured neurons were fixed and permeabilized successively with 4% paraformaldehyde, 100% methanol, and 0.2% Triton X-100 (Lin et al. 2009 Neuropsychopharmacology 34(9):2097-111). […] In FIG. 4A-FIG. 4B, the number of synaptophysin clusters and their colocalization with boutons of neurons expressing eGFP or eGFP-labeled αS were automatically counted using ImageJ software (available on the world wide web at imagej.nih.gov/ij/). […] DAPI stained nuclei were manually counted from wide-field photomicrographs. […]

[9] abbreviates: 500 nM chir99021 and 500 nM roscovitine in combination.
Setting [10] is: either drug alone, concentrations up to 5 μM.

“Also recorded” adds a separate entry of the source.

As for “H2N-GRKKRRQRRRPQDHGAEIVYKAPVVSGDTAPRHLSNVS ST-OH (H-GRKKRRQRRRPQDHGAEIVYKAPVVSGDTAPRHLSNVSST-OH) [Peptide 2]”, the “proportion of dendritic spines that contain tau (tau mis-sorting caused by P301L mutation)” value was “block mislocalization of tau” in series [1] and “blocked tau mis-sorting; also recorded: significantly decreased” in series [1] (listed as AP peptide). Further, the “strength of effect on tau mis-sorting compared with WT peptide” value in series [1] (neurons expressing P301L mutant tau) is recorded as “stronger effect”. The “proportion of dendritic spines that contain tau, increase caused by Aβ oligomers” value in series [2] was “blocked”; in series [2] (listed as AP peptide), “block tau mislocalization; also recorded: can block tau missorting to dendritic spines”. The “proportion of dendritic spines containing tau after mechanical stretches” value in series [3] is “blocked tau missorting to dendritic spines”.

For the compound `CC[C@H](CO)Nc1nc(NCc2ccccc2)c2ncn(C(C)C)c2n1` [roscovitine], the “percentage of eGFP-containing spines” value is recorded as “reduced the percentage of eGFP-containing spines to that of wild type eGFP-tau” in series [4] (setting [9]) and “neither drug alone, at concentrations up to 5 μM, lowered the percentage of eGFP-containing spines to control levels” in series [4] (setting [10]).

As to “H2N-GRKKRRQRRRPQDHGAEIVYKEPVVSGDTEPRHLSNVS ST-OH (H-GRKKRRQRRRPQDHGAEIVYKEPVVSGDTEPRHLSNVSST-OH) [Peptide 3]”, the “proportion of dendritic spines that contain tau (tau mis-sorting caused by P301L mutation)” value in series [1] is reported as “did not block”; in series [1] (listed as EP Peptide), “No decrease”; in series [1] (listed as EP peptide) it was “did not block tau mis-sorting”.

`Cc1c[nH]c(-c2cnc(NCCNc3ccc(C#N)cn3)nc2-c2ccc(Cl)cc2Cl)n1` [CHIR99021]: the “percentage of eGFP-containing spines” value in series [4] (setting [9]) was “reduced the percentage of eGFP-containing spines to that of wild type eGFP-tau”; in series [4] (setting [10]), “neither drug alone, at concentrations up to 5 μM, lowered the percentage of eGFP-containing spines to control levels”. For the same compound, the “concentration that killed the neurons” value in series [5] is recorded as “above 5 μM”. Moreover, in series [5], the “drug concentration at which overt cell death was observed” value is “exceeded 5 M”. Further, the “increase in dendritic spines containing mislocalized eGFP-tau in G2-3 neurons” value in series [6] was “blocked”. Besides, the “postsynaptic deficits (mEPSC amplitude) caused by A53T αS transfection” value in series [7] is recorded as “completely reverse”. The “surface N-GluA1 synaptic localization (colocalization with PSD-95)” value in series [8] (listed as CHIR) is “strong colocalization of PSD-95 and N-GluA1 clusters is restored”; in series [8] (listed as CHIR-99021) it was “restored surface N-GluA1 synaptic localization”.

Source of the values: patent US20190263867A1, “TAU PEPTIDES, METHODS OF MAKING, AND METHODS OF USING” (priority 2018, published 2019).
